Measured values reported in ChEMBL document CHEMBL4680113, “Tigliane Diterpenoids as a New Type of Antiadipogenic Agents Inhibit GRα-Dexras1 Axis in Adipocytes” (J Med Chem, 2019).
Activity calls are given as the source filed them. The calls are words filed in the database; no cut-off is given here.

Key:
[1] = tested on: 3T3-L1; test: Lipid lowering activity in mouse 3T3-L1 cells assessed as reduction in adipogenic cocktail-induced triglyceride levels at 10 uM incubated for 6 days by GPO-POD assay; assay type: functional; details: for inhibition: time 6.0 day; for inhibition at 10 µM: 3T3-L1, 144 h, time 6 day
[2] = tested on: 3T3-L1; test: Lipid lowering activity in mouse 3T3-L1 cells assessed as reduction in adipogenic cocktail-induced triglyceride levels at 1 to 10 uM by Oil-Red O staining; assay type: functional, cell-based; details: dose 1-10 µM
[3] = tested on: 3T3-L1; test: Toxicity in mouse 3T3-L1 cells assessed as reduction in cell viability at 10 uM incubated for 6 days by LDH release assay; assay type: cell-based; details: 3t3-l1, 144 h, time 6 day
[4] = tested on: 3T3-L1; test: Inhibition of GR-alpha in mouse 3T3-L1 cells assessed as reduction in adipogenic cocktail-induced Dexras1 mRNA expression at 10 uM incubated for 4 hrs by RT-qPCR analysis; assay type: cell-based; details: filed as antagonist
[5] = tested on: 3T3-L1; test: Lipid lowering activity in mouse 3T3-L1 cells assessed as reduction in adipogenic cocktail induced triglyceride levels at 1 uM incubated for 6 days by GPO-POD assay; assay type: functional, cell-based; details: time 6.0 day
[6] = tested on: 3T3-L1; test: Inhibition of adipogenic cocktail-induced PPARgamma mRNA expression in mouse 3T3-L1 cells at 1 uM by RT-qPCR analysis; assay type: functional, cell-based
[7] = tested on: 3T3-L1; test: Inhibition of adipogenic cocktail-induced GR-alpha nuclear translocation in mouse 3T3-L1 cells at 10 uM after 8 hrs by Western blot analysis; assay type: cell-based; details: filed as antagonist
[8] = tested on: 3T3-L1; test: Activation of GR-alpha in mouse 3T3-L1 cells assessed as increase in adipogenic cocktail-induced Dexras1 mRNA expression at 10 uM incubated for 4 hrs by RT-qPCR analysis; assay type: cell-based; details: filed as agonist
[9] = tested on: 3T3-L1; test: Lipid increasing activity in mouse 3T3-L1 cells assessed as increase in adipogenic cocktail induced triglyceride levels at 1 uM incubated for 6 days by GPO-POD assay; assay type: functional, cell-based; details: time 6.0 day
[10] = tested on: 3T3-L1; test: Activation of adipogenic cocktail-induced PPARgamma mRNA expression in mouse 3T3-L1 cells at 1 uM by RT-qPCR analysis; assay type: functional, cell-based

SMILES	inhibition [1]	inhibition [2]	Activity [3]	inhibition at 10 µM [1]	further results
CC(=O)O[C@@H]1[C@@H]2[C@@H](OC(C)=O)[C@@]34CO[C@@](C)([C@H](OC(C)=O)[C@@]2(OC(C)=O)C[C@@H]1C)[C@@H]3[C@@H]1[C@@H](C[C@]1(C)OC(C)=O)[C@@H](OC(=O)c1ccccc1)C4=O	Active	–	–	–	–
CC(=O)OC[C@]12[C@H](OC(=O)c3ccccc3)[C@H]3[C@@H](OC(=O)c4cccnc4)[C@@H](C)C[C@]3(O)C(=O)[C@@](C)(OC(C)=O)[C@@H]1[C@@H]1[C@H](C[C@H]2OC(C)=O)C1(C)C	–	Active	Non-Toxic	> 60%	–
CCC(=O)O[C@@H]1[C@@H]2[C@@H](OC(C)=O)[C@@]34CO[C@@](C)([C@H](OC(C)=O)[C@@]2(OC(C)=O)C[C@@H]1C)[C@@H]3[C@@H]1[C@@H](C[C@]1(C)OC(C)=O)[C@@H](OC(=O)C(C)C)C4=O	–	Active	Non-Toxic	> 60%	–
CC(=O)O[C@@H]1[C@@H]2[C@@H](OC(C)=O)[C@@]34CO[C@@](C)([C@H](OC(=O)c5ccccc5)[C@@]2(O)C[C@@H]1C)[C@@H]3[C@@H]1[C@@H](C[C@]1(C)OC(C)=O)[C@@H](OC(=O)c1ccccc1)C4=O	inactive	–	–	–	–
CCC(=O)O[C@@H]1[C@@H]2[C@@H](OC(C)=O)[C@@]34CO[C@@](C)([C@@H](OC(=O)C(C)CC)[C@@]2(OC(C)=O)C[C@@]1(C)OC(C)=O)[C@@H]3[C@@H](C(C)(C)OC(C)=O)C=C[C@H]4OC(C)=O (some centres not stated)	–	Active	Non-Toxic	> 60%	–
CCCC(=O)O[C@@H]1[C@@H]2[C@@H](OC(C)=O)[C@@]34CO[C@@](C)([C@H](OC(C)=O)[C@@]2(OC(C)=O)C[C@@H]1C)[C@@H]3[C@@H]1[C@@H](C[C@]1(C)OC(C)=O)[C@@H](OC(=O)c1ccccc1)C4=O	Active	–	–	–	–
CC(=O)O[C@@H]1[C@@H]2[C@@H](OC(C)=O)[C@@]34CO[C@@](C)([C@H](OC(C)=O)[C@@]2(OC(C)=O)C[C@@H]1C)[C@@H]3[C@@H]1[C@@H](C[C@]1(C)OC(C)=O)[C@@H](OC(=O)C(C)C)C4=O	inactive	–	–	–	–
CCC(=O)O[C@@H]1[C@@H]2[C@@H](OC(C)=O)[C@@]34CO[C@@](C)([C@H](OC(C)=O)[C@@]2(OC(C)=O)C[C@@H]1C)[C@@H]3[C@@H]1[C@@H](C[C@]1(C)OC(C)=O)[C@@H](O)C4=O	Active	Active	Non-Toxic	–	–
CCCC(=O)O[C@@H]1[C@@H]2[C@@H](OC(C)=O)[C@@]34CO[C@@](C)([C@H](OC(C)=O)[C@@]2(OC(C)=O)C[C@@H]1C)[C@@H]3[C@@H](C(C)(C)OC(C)=O)C=C[C@H]4OC(C)=O	–	Active	Non-Toxic	> 60%	–
CC(=O)O[C@@H]1[C@H]2[C@@H](OC(C)=O)[C@](C)(O)C[C@]2(OC(C)=O)[C@H](OC(=O)c2ccccc2)[C@]2(C)OC[C@]13[C@H](OC(C)=O)C=C[C@H](C(C)(C)OC(C)=O)[C@@H]23	–	Active	Non-Toxic	> 60%	–
CCC(=O)O[C@@H]1[C@@H]2[C@@H](OC(C)=O)[C@@]34CO[C@@](C)([C@H](OC(=O)c5ccccc5)[C@@]2(OC(C)=O)C[C@@H]1C)[C@@H]3[C@@H](C(C)(C)OC(C)=O)C=CC4=O	Active	–	–	–	–
CC(=O)O[C@@H]1[C@H]2[C@@H](OC(C)=O)[C@](C)(OC(C)=O)C[C@]2(OC(C)=O)[C@H](OC(=O)c2ccccc2)[C@]2(C)OC[C@]13[C@H](OC(C)=O)C=C[C@H](C(C)(C)OC(C)=O)[C@@H]23	–	Active	Non-Toxic	> 60%	–
CCC(=O)O[C@@H]1[C@@H]2[C@@H](OC(C)=O)[C@@]34CO[C@@](C)([C@H](OC(C)=O)[C@@]2(OC(C)=O)C[C@@H]1C)[C@@H]3[C@@H]1[C@@H](C[C@]1(C)OC(C)=O)[C@@H](OC(=O)C(C)CC)C4=O (some centres not stated)	inactive	–	–	–	–
CC(=O)O[C@@H]1[C@H]2[C@@H](OC(=O)c3cccnc3)[C@@H](C)C[C@]2(OC(C)=O)[C@@H](OC(C)=O)[C@]2(C)OC[C@]13C(=O)[C@H](OC(=O)c1ccccc1)[C@@H]1C[C@](C)(OC(C)=O)[C@@H]1[C@@H]23	inactive	–	–	–	–
CC(=O)O[C@@H]1[C@H]2[C@@H](OC(=O)c3cccnc3)[C@@H](C)C[C@]2(OC(C)=O)[C@@H](OC(C)=O)[C@]2(C)OC[C@]13C(=O)[C@@H](O)[C@@H]1C[C@](C)(OC(C)=O)[C@@H]1[C@@H]23	inactive	–	–	–	–
CC(=O)O[C@@H]1[C@@H]2[C@@H](OC(C)=O)[C@@]34CO[C@@](C)([C@H](OC(C)=O)[C@@]2(OC(C)=O)C[C@@H]1C)[C@@H]3[C@@H]1[C@@H](C[C@]1(C)OC(C)=O)[C@H](O)C4=O	–	Active	Non-Toxic	> 60%	–
CCC(=O)O[C@@H]1[C@@H]2[C@@H](OC(C)=O)[C@@]34CO[C@@](C)([C@H](OC(C)=O)[C@@]2(OC(C)=O)C[C@@H]1C)[C@@H]3[C@@H]1[C@@H](C[C@]1(C)OC(C)=O)[C@@H](OC(=O)c1ccccc1)C4=O	Active	Active	Non-Toxic	–	–
CC#C[C@]1(O)CC[C@H]2[C@@H]3CCC4=CC(=O)CCC4=C3[C@@H](c3ccc(N(C)C)cc3)C[C@@]21C	–	–	–	–	inhibition [4]: Active; inhibition [5]: Active; inhibition [6]: Active; inhibition [7]: Active
CCC(=O)O[C@@H]1[C@@H]2[C@@H](OC(C)=O)[C@@]34CO[C@@](C)([C@H](OC(C)=O)[C@@]2(O)C[C@@H]1C)[C@@H]3[C@@H]1[C@@H](C[C@]1(C)OC(C)=O)[C@@H](OC(=O)c1ccccc1)C4=O	inactive	–	–	–	–
CC(=O)O[C@@H]1[C@H]2[C@@H](OC(=O)c3cccnc3)[C@@H](C)C[C@]2(OC(C)=O)[C@@H](OC(C)=O)[C@]2(C)OC[C@]13C(=O)[C@H](O)[C@@H]1C[C@](C)(OC(C)=O)[C@@H]1[C@@H]23	inactive	Active	Non-Toxic	–	–
C[C@H]1C[C@@H]2[C@H]([C@@H](O)C[C@@]3(C)[C@H]2CC[C@]3(O)C(=O)CO)[C@@]2(C)C=CC(=O)C=C12	–	–	–	–	Activity [8]: Active; Activity [9]: Active; Activity [10]: Active
CC1=C[C@@H]2[C@H](C1=O)[C@H](O)C(C)=C[C@H]1[C@@H]3C(C)(C)[C@]3(OC(=O)C(C)C)[C@H](OC(=O)c3ccccc3)[C@@H](C)[C@]21O [EUPHODENDRIANE A]	–	Active	Non-Toxic	> 50%	–
CC(=O)O[C@@H]1[C@H]2[C@@H](OC(=O)c3cccnc3)[C@@H](C)C[C@]2(OC(C)=O)[C@@H](OC(C)=O)[C@]2(C)OC[C@]13C(=O)[C@H](OC(=O)C(C)C)[C@@H]1C[C@](C)(OC(C)=O)[C@@H]1[C@@H]23	inactive	–	–	–	–
CC1=C[C@H]2[C@@H]3C(C)(C)[C@]3(OC(=O)C(C)C)[C@H](OC(=O)c3ccccc3)[C@@H](C)[C@]2(O)[C@@H]2C=C(C)C(=O)C2=C1	–	Active	Non-Toxic	> 50%	–
CC(=O)O[C@@H]1[C@]2(C)OC[C@]3(C(=O)C=C[C@H](C(C)(C)OC(C)=O)[C@@H]23)[C@H](OC(C)=O)[C@H]2[C@@H](OC(=O)c3cccnc3)[C@@H](C)C[C@@]21OC(C)=O	inactive	–	–	–	–
CCC(=O)O[C@@H]1[C@@H]2[C@@H](OC(=O)c3ccccc3)[C@@]3(COC(C)=O)[C@@H]([C@@H]4[C@H](C[C@H]3OC(C)=O)C4(C)C)[C@](C)(OC(C)=O)C(=O)[C@@]2(O)C[C@@H]1C	–	Active	Non-Toxic	> 60%	–
